Among the data in US12098148B2, “Therapeutic compounds” (C4X Discovery Limited, priority 2018, dated 2024) are EC50 and IC50 values, retold here.

For assay [1], the system named is NQO1 mRNA in BEAS-2B cells. The assay is described as follows: Beas2B NQO1 mRNA cell based assay. On the set-up: species or system human. The conditions noted are these: Homo sapiens, BEAS-2B, 24 h, 24 h compound treatment, increase in NQO1 mRNA vs vehicle (0.1% DMSO), read-out: EC50. Put shortly:
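BEAS-2B human bronchial epithelial cells exposed to compound for 24 h at 37 °C, 5% CO2. NQO1 mRNA measured by one-step TaqMan RT-qPCR on unpurified lysates, normalized to β-actin; relative expression by ΔΔCT method.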

Assay [2] addresses human KEAP1 (N-term, residues 321-609) (Homo sapiens, UniProt Q14145). The assay is described as follows: biochemical.
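Throughout, for IC50: fluorescence polarization competition assay of Kelch domain binding to NRF2, 12-point 1:3 dilution series from 10 µM, read after 1 h at room temperature, floor 10 nM.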

Sequence of human KEAP1 (N-term, residues 321-609) (Q14145 321-609): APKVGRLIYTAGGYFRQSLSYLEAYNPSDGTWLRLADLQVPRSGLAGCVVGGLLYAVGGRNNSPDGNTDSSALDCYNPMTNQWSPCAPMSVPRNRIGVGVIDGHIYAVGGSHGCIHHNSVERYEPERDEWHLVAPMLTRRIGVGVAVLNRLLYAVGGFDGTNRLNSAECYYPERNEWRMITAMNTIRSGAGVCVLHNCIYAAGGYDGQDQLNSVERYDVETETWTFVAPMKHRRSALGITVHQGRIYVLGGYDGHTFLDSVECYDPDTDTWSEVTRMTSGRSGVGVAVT

As usually defined, the EC50 is the concentration giving half of the maximal effect. In general, IC50 refers to the concentration that gives 50% inhibition. Read a low IC50 as inhibition by little substance. As for `CCn1cnc(COc2ccc(Br)c3c2[C@@H](CN2Cc4ccccc4C2=O)N(C(=O)[C@@H]2CCCC[C@@H]2C(=O)O)CC3)c1C#N` [Example 43, (1S,2R)-2-((S)-5-bromo-8-((5-cyano-1-ethyl-1H-imidazol-4-yl)methoxy)-1-((1-oxoisoindolin-2-yl)methyl)-1,2,3,4-tetrahydroisoquinoline-2-carbonyl)cyclohexane-1-carboxylic acid], the EC50 in assay [1] came out at 18 nM. For the same compound, in assay [2], the IC50 is 10 nM.

As to `O=C(O)[C@H]1CCCC[C@H]1C(=O)N1CCc2c(Br)ccc(OCc3nnc4n3CCCC4)c2[C@H]1CN1Cc2ccccc2C1=O` [Example 44, (1S,2R)-2-((S)-5-bromo-1-((1-oxoisoindolin-2-yl)methyl)-8-((5,6,7,8-tetrahydro-[1,2,4]triazolo[4,3-a]pyridin-3-yl)methoxy)-1,2,3,4-tetrahydroisoquinoline-2-carbonyl)cyclohexane-1-carboxylic acid], the EC50 in assay [1] was 10 nM. Also, the half-maximal inhibitory concentration (IC50) in assay [2] was determined as 4.2 nM.

Regarding `CC(Oc1ccc(Br)c2c1[C@@H](CN1Cc3ccccc3C1=O)N(C(=O)[C@@H]1CCCC[C@@H]1C(=O)O)CC2)c1cn(C)nn1` (stereo partly drawn) [Example 45, (1S,2R)-2-((1S)-5-bromo-8-(1-(1-methyl-1H-1,2,3-triazol-4-yl)ethoxy)-1-((1-oxoisoindolin-2-yl)methyl)-1,2,3,4-tetrahydroisoquinoline-2-carbonyl)cyclohexane-1-carboxylic acid], the EC50 in assay [1] turned out to be 110 nM. In addition, in assay [2], inhibition was half-maximal at 4.9 nM (IC50).

Take `Cn1nnc2cc(COc3ccc(Cl)c4c3[C@@H](CN3Cc5ccccc5C3=O)N(C(=O)[C@@H]3CCCC[C@@H]3C(=O)O)CC4)ccc21` [Example 48, (1S,2R)-2-((S)-5-chloro-8-((1-methyl-1H-benzo[d][1,2,3]triazol-5-yl)methoxy)-1-((1-oxoisoindolin-2-yl)methyl)-1,2,3,4-tetrahydroisoquinoline-2-carbonyl)cyclohexane-1-carboxylic acid]: the EC50 in assay [1] worked out at 4.4 nM. For the same compound, the IC50 in assay [2] was 8 nM.

For `Cc1cc(COc2ccc(Cl)c3c2[C@@H](CN2Cc4ccccc4C2=O)N(C(=O)[C@@H]2CCCC[C@@H]2C(=O)O)CC3)no1` [Example 49, (1S,2R)-2-((S)-5-chloro-8-((5-methylisoxazol-3-yl)methoxy)-1-((1-oxoisoindolin-2-yl)methyl)-1,2,3,4-tetrahydroisoquinoline-2-carbonyl)cyclohexane-1-carboxylic acid], the EC50 in assay [1] was 19 nM. Moreover, in assay [2], the concentration for half-maximal inhibition (IC50) was 11 nM.

For the compound `O=C(O)[C@H]1CCCC[C@H]1C(=O)N1CCc2c(Cl)ccc(OCc3nnc4ccccn34)c2[C@H]1CN1Cc2ccccc2C1=O` [Example 50], in assay [1], the EC50 is 2 nM. Moreover, half-maximal inhibition in assay [2] (IC50) required 7.7 nM.

For `O=C(O)[C@H]1CCCC[C@H]1C(=O)N1CCc2c(Cl)ccc(OCc3nccn3CC(F)(F)F)c2[C@H]1CN1Cc2ccccc2C1=O` [Example 51, (1S,2R)-2-((S)-5-chloro-1-((1-oxoisoindolin-2-yl)methyl)-8-((1-(2,2,2-trifluoroethyl)-1H-imidazol-2-yl)methoxy)-1,2,3,4-tetrahydroisoquinoline-2-carbonyl)cyclohexane-1-carboxylic acid], the EC50 in assay [1] is 110 nM. In assay [2], this compound came in with an IC50 of 10 nM.

With `O=C(O)[C@H]1CCCC[C@H]1C(=O)N1CCc2c(Cl)ccc(OCc3nccn3CC(F)F)c2[C@H]1CN1Cc2ccccc2C1=O` [Example 52, (1S,2R)-2-((S)-5-chloro-8-((1-(2,2-difluoroethyl)-1H-imidazol-2-yl)methoxy)-1-((1-oxoisoindolin-2-yl)methyl)-1,2,3,4-tetrahydroisoquinoline-2-carbonyl)cyclohexane-1-carboxylic acid], the EC50 in assay [1] is 140 nM. Moreover, half-maximal inhibition in assay [2] (IC50) was put at 13 nM.

As to `Cn1nnc(COc2ccc(Cl)c3c2[C@@H](CN2Cc4ccccc4C2=O)N(C(=O)[C@@H]2CCCC[C@@H]2C(=O)O)CC3)c1C(F)F` [Example 53, (1S,2R)-2-((S)-5-chloro-8-((5-(difluoromethyl)-1-methyl-1H-1,2,3-triazol-4-yl)methoxy)-1-((1-oxoisoindolin-2-yl)methyl)-1,2,3,4-tetrahydroisoquinoline-2-carbonyl)cyclohexane-1-carboxylic acid], in assay [1], the EC50 was determined as 1.4 nM. This compound also displayed a half-maximal inhibitory concentration (IC50) in assay [2] of 6.2 nM.

Take `Cn1nnc(COc2ccc(Cl)c3c2[C@@H](CN2Cc4ccccc4C2=O)N(C(=O)[C@@H]2CCCC[C@@H]2C(=O)O)CC3)c1C(F)(F)F` [Example 54, (1S,2R)-2-((S)-5-Chloro-8-((1-methyl-5-(trifluoromethyl)-1H-1,2,3-triazol-4-yl)methoxy)-1-((1-oxoisoindolin-2-yl)methyl)-1,2,3,4-tetrahydroisoquinoline-2-carbonyl)cyclohexane-1-carboxylic acid]: the EC50 in assay [1] was found to be 7.2 nM. Further, in assay [2], the IC50 was found to be 3.6 nM.

`CCn1ccc(COc2ccc(Cl)c3c2[C@@H](CN2Cc4ccccc4C2=O)N(C(=O)[C@@H]2CCCC[C@@H]2C(=O)O)CC3)n1` [Example 55, (1S,2R)-2-((S)-5-chloro-8-((1-ethyl-1H-pyrazol-3-yl)methoxy)-1-((1-oxoisoindolin-2-yl)methyl)-1,2,3,4-tetrahydroisoquinoline-2-carbonyl)cyclohexane-1-carboxylic acid]: the EC50 in assay [1] worked out at 73 nM. In assay [2], the IC50 came out at 5.6 nM.

Consider `Cn1cnc(COc2ccc(Cl)c3c2[C@@H](CN2Cc4ccccc4C2=O)N(C(=O)[C@@H]2CCCC[C@@H]2C(=O)O)CC3)c1C(F)F` [Example 56, (1S,2R)-2-((S)-5-Chloro-8-((5-(difluoromethyl)-1-methyl-1H-imidazol-4-yl)methoxy)-1-((1-oxoisoindolin-2-yl)methyl)-1,2,3,4-tetrahydroisoquinoline-2-carbonyl)cyclohexane-1-carboxylic acid], for which, in assay [1], the EC50 was 4.8 nM. This compound had an IC50 in assay [2] of 4.2 nM.

As to `CC(C)n1cc(COc2ccc(Cl)c3c2[C@@H](CN2Cc4ccccc4C2=O)N(C(=O)[C@@H]2CCCC[C@@H]2C(=O)O)CC3)nn1` [Example 57, (1S,2R)-2-((S)-5-chloro-8-((1-isopropyl-1H-1,2,3-triazol-4-yl)methoxy)-1-((1-oxoisoindolin-2-yl)methyl)-1,2,3,4-tetrahydroisoquinoline-2-carbonyl)cyclohexane-1-carboxylic acid], the EC50 in assay [1] was determined as 2.7 nM. The same compound returned an IC50 in assay [2] of 6.6 nM.

`CC(C)n1cc(COc2ccc(F)c3c2[C@@H](CN2Cc4ccccc4C2=O)N(C(=O)[C@@H]2CCCC[C@@H]2C(=O)O)CC3)nn1` [Example 58, (1S,2R)-2-((S)-5-fluoro-8-((1-isopropyl-1H-1,2,3-triazol-4-yl)methoxy)-1-((1-oxoisoindolin-2-yl)methyl)-1,2,3,4-tetrahydroisoquinoline-2-carbonyl)cyclohexane-1-carboxylic acid]: the EC50 in assay [1] stood at 68 nM. In assay [2], this compound yielded an IC50 of 8 nM.

For `Cc1ccc(OCc2cn(C(C)C)nn2)c2c1CCN(C(=O)[C@@H]1CCCC[C@@H]1C(=O)O)[C@@H]2CN1Cc2ccccc2C1=O` [Example 59, (1S,2R)-2-((S)-8-((1-isopropyl-1H-1,2,3-triazol-4-yl)methoxy)-5-methyl-1-((1-oxoisoindolin-2-yl)methyl)-1,2,3,4-tetrahydroisoquinoline-2-carbonyl)cyclohexane-1-carboxylic acid], the EC50 in assay [1] worked out at 21 nM. Besides, the IC50 in assay [2] was 11 nM.
